Test results reported in US9783527B2, “Indazole ureas and method of use” (AbbVie Inc., priority 2014, dated 2017).

Target: human Nav1.7 (Homo sapiens (Human), UniProt Q15858)
Assay: FRET-based membrane potential assay, recombinant human sodium channel Nav1.7
Format: cell-based
Conditions: HEK293 cells stably expressing recombinant human Nav1.7; depolarization with veratridine (EC80) + scorpion venom
Protocol: FRET-Based Membrane Potential Assays.
Recombinant, Human Sodium Channel, Nav1.7.
Two days prior to the experiment, frozen HEK293 cells stably expressing recombinant human Nav1.7 were quickly thawed and plated at 25,000 cells/well in growth medium [DMEM (Invitrogen #11965) with 10% HI FBS (Invitrogen #10082), 2 mM glutamine, 100 units/mL penicillin, 0.1 mg/mL streptomycin (PSG, Sigma #G1146), and 500 μg/mL Geneticin (Invitrogen #10131)] in black-walled, clear-bottom 384-well poly-D-lysine-coated assay plates (Greiner Bio-One, Frickenhausen, Germany) and incubated in a humidified 5% CO2 incubator at 37° C. On the day of the assay, medium was removed by aspiration, and cells were washed with assay buffer [HBSS (Invitrogen, Carlsbad, Calif.) containing 20 mM HEPES (Invitrogen, Carlsbad, Calif.)]. After washing, 30 μL assay buffer containing the fluorescent voltage-sensor probe CC2-DMPE (Invitrogen, Carlsbad, Calif.) at 20 μM and 0.01% pluronic F-127 (Invitrogen, Carlsbad, Calif.) was added to the cells. Cells were incubated for 40 minutes at room temperature in the dark. Following the incubation, the cells were washed and 30 μL assay buffer containing 2.5 μM DiSBAC2(3) substrate (Invitrogen, Carlsbad, Calif.) and 0.5 mM VABSC-1 (Invitrogen, Carlsbad, Calif.) was added to the cells. The cells were incubated for 90 minutes at room temperature in the dark. Fluorescence readings were made using a FLIPR®^TETRA (Molecular Devices, Sunnyvale Calif.) equipped with voltage-sensor probe optics. At the start of each experiment the optimal (EC80) concentration of depolarizing agent (veratridine) was determined by testing a dilution curve of assay buffer containing veratridine (Sigma-Aldrich, St. Louis, Mo.) and 1 mg/mL scorpion venom (SVqq, from Leiurus quinquestriatus; Sigma-Aldrich, St. Louis, Mo.). […] Test compounds in the daughter plate were diluted to (˜3×) solutions in assay buffer immediately before assaying. Using the FLIPR®^TETRA, 20 μL of the (3×) compound solutions were first added to the cells, then 20 μL of depolarizing solution (3×EC80 veratridine+SVqq) were added 3 minutes later to activate the channel. Changes in fluorescence were measured at wavelengths of 440-480 nm and 565-625 nm over the course of the experimental run. Membrane depolarization was expressed as a ratio of the maximum F440-480 nm/F565-625 nm reading above average baseline F440-480 nm/F565-625 nm reading. IC50 values were calculated from curve fits of the ratio data using a four-parameter logistic Hill equation (Accelrys Assay Explorer 3.3 Client, Accelrys, San Diego, Calif.) with percent inhibition plotted against compound concentration.

human Nav1.7, sequence (Q15858 whole entry): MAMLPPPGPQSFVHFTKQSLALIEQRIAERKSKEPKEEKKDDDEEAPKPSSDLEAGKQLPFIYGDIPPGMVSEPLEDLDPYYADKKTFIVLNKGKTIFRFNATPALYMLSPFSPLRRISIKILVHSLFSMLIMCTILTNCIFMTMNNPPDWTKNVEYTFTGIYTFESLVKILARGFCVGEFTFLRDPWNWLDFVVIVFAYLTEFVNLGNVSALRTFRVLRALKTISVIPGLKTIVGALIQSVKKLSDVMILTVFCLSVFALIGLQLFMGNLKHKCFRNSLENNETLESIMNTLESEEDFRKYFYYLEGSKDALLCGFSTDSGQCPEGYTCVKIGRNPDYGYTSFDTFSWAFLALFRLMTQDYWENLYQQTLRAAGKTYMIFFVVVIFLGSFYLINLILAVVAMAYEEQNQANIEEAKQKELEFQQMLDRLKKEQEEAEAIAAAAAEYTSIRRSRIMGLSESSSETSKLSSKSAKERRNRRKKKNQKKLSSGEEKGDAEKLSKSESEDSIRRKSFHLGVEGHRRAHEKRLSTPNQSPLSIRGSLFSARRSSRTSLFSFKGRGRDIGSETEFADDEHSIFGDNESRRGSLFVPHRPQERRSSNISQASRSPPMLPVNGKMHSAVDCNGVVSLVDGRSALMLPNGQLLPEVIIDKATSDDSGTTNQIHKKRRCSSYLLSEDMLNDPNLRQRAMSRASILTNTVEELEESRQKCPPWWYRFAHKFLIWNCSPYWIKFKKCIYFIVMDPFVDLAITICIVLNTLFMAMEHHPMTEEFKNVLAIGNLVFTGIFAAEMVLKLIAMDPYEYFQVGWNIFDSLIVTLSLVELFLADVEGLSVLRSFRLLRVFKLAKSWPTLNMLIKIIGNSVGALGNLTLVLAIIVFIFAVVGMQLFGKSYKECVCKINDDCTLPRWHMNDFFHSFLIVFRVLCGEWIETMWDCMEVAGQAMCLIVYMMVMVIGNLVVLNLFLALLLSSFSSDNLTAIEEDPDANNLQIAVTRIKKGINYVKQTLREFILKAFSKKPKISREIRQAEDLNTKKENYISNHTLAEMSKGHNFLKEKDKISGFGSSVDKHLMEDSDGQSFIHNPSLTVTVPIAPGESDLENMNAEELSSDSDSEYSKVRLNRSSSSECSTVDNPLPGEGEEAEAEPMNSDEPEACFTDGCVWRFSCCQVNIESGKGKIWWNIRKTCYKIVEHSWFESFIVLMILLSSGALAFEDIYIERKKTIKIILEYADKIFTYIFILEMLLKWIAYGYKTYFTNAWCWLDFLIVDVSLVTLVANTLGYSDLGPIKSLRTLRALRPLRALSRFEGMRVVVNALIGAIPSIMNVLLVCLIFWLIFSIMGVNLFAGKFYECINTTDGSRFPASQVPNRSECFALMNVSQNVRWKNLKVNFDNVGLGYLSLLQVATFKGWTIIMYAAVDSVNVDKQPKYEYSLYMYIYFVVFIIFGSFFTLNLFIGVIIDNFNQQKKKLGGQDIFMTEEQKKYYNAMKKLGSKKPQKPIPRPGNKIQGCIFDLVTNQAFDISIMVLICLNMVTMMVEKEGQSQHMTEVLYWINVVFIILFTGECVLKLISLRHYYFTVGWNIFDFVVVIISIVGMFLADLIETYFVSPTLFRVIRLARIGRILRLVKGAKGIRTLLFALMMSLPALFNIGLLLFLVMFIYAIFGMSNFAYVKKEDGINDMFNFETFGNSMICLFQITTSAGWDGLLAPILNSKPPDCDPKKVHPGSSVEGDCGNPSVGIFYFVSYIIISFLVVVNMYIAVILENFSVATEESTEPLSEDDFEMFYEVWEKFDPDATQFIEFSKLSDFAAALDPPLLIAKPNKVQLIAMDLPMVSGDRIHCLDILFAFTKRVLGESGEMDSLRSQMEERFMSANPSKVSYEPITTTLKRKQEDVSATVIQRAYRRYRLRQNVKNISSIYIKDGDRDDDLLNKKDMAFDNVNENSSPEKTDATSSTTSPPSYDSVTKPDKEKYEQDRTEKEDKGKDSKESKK

Compared with `O=C(CN1CCN(c2cccc3c2cnn3-c2ccccc2F)C1=O)N1CCC1` [Example 94, 1-[2-(azetidin-1-yl)-2-oxoethyl]-3-[1-(2-fluorophenyl)-1H-indazol-4-yl]imidazolidin-2-one], `C[C@@H]1CCCN1C(=O)CN1CCN(c2cccc3c2cnn3-c2ccccc2F)C1=O` [Example 118, 1-[1-(2-fluorophenyl)-1H-indazol-4-yl]-3-{2-[(2R)-2-methylpyrrolidin-1-yl]-2-oxoethyl}imidazolidin-2-one] is 11-fold lower in IC50: 11900 nM for the first, 1100 nM for the second. The second is the more potent here.

Compared with `CC(C)NC(=O)CN1CCN(c2cccc3c2cnn3-c2ccccc2F)C1=O` [Example 95, 2-{3-[1-(2-fluorophenyl)-1H-indazol-4-yl]-2-oxoimidazolidin-1-yl}-N-isopropylacetamide], `CC(C)CC(O)CN1CCN(c2cccc3c2cnn3-c2ccccc2F)C1=O` (stereo not shown) [Example 123, 1-[1-(2-fluorophenyl)-1H-indazol-4-yl]-3-(2-hydroxy-4-methylpentyl)imidazolidin-2-one] is 7.7-fold lower in IC50: 2680 nM for the first, 346 nM for the second. The second is the more potent here.

Compared with `CC(C)OCC(=O)N1CCN(c2cccc3c2cnn3-c2ccccc2F)C1=O` [Example 96, 1-[1-(2-fluorophenyl)-1H-indazol-4-yl]-3-(isopropoxyacetyl)imidazolidin-2-one], `CC(C)C1CCCN1C(=O)CN1CCN(c2cccc3c2cnn3-c2ccccc2F)C1=O` (stereo not shown) [Example 116, 1-[1-(2-fluorophenyl)-1H-indazol-4-yl]-3-[2-(2-isopropylpyrrolidin-1-yl)-2-oxoethyl]imidazolidin-2-one] is 2-fold lower in IC50: 1640 nM for the first, 821 nM for the second.

`O=C1N(Cc2cc(C(F)(F)F)ccn2)CCN1c1cccc2c1cnn2-c1ccccc1F` [Example 97, 1-[1-(2-fluorophenyl)-1H-indazol-4-yl]-3-{[4-(trifluoromethyl)pyridin-2-yl]methyl}imidazolidin-2-one] and `O=C1N(CC(=O)N2C[C@H](O)C[C@@H]2c2cc(F)ccc2F)CCN1c1cccc2c1cnn2-c1ccccc1F` [Example 121, 1-{2-[(2R,4R)-2-(2,5-difluorophenyl)-4-hydroxypyrrolidin-1-yl]-2-oxoethyl}-3-[1-(2-fluorophenyl)-1H-indazol-4-yl]imidazolidin-2-one] are within 1.5-fold of each other in IC50: 2390 nM for the first, 2410 nM for the second.

Going from `CCOCC1(F)CCN(C(=O)CN2CCN(c3cccc4c3cnn4-c3ccccc3F)C2=O)C1` (stereo not shown) [Example 98, 1-{2-[3-(ethoxymethyl)-3-fluoropyrrolidin-1-yl]-2-oxoethyl}-3-[1-(2-fluorophenyl)-1H-indazol-4-yl]imidazolidin-2-one] to `O=C(CN1CCN(c2cccc3c2cnn3-c2ccccc2F)C1=O)N1CCC2(C1)OCCO2` [Example 102, 1-[2-(1,4-dioxa-7-azaspiro[4.4]non-7-yl)-2-oxoethyl]-3-[1-(2-fluorophenyl)-1H-indazol-4-yl]imidazolidin-2-one], the IC50 rises from 1440 nM to 3490 nM (2.4-fold). The first is the more potent here.

Compared with `O=C(CN1CCN(c2cccc3c2cnn3-c2ccccc2F)C1=O)N1CCN2CCC[C@H]2C1` [Example 99, 1-[1-(2-fluorophenyl)-1H-indazol-4-yl]-3-{2-[(8aS)-hexahydropyrrolo[1,2-c]pyrazin-2(1H)-yl]-2-oxoethyl}imidazolidin-2-one], `CN1[C@H]2CC[C@@H]1CN(C(=O)CN1CCN(c3cccc4c3cnn4-c3ccccc3F)C1=O)CC2` [Example 114, 1-[1-(2-fluorophenyl)-1H-indazol-4-yl]-3-{2-[(1R,6S)-9-methyl-3,9-diazabicyclo[4.2.1]non-3-yl]-2-oxoethyl}imidazolidin-2-one] is 30-fold higher in IC50: 482 nM for the first, 14300 nM for the second. The first is the more potent here.

First: CC1COCC(C)N1C(=O)CN1CCN(c2cccc3c2cnn3-c2ccccc2F)C1=O (stereo not shown) [Example 101, 1-[2-(3,5-dimethylmorpholin-4-yl)-2-oxoethyl]-3-[1-(2-fluorophenyl)-1H-indazol-4-yl]imidazolidin-2-one]
Second: C[C@@H]1COCCN1C(=O)CN1CCN(c2cccc3c2cnn3-c2ccccc2F)C1=O [Example 113, 1-[1-(2-fluorophenyl)-1H-indazol-4-yl]-3-{2-[(3R)-3-methylmorpholin-4-yl]-2-oxoethyl}imidazolidin-2-one]
The IC50 of the first is 1.6-fold higher: 3520 nM for the first, 2270 nM for the second.

Going from `O=C1CN(C(=O)CN2CCN(c3cccc4c3cnn4-c3ccccc3F)C2=O)CC(=O)N1` [Example 103, 4-({3-[1-(2-fluorophenyl)-1H-indazol-4-yl]-2-oxoimidazolidin-1-yl}acetyl)piperazine-2,6-dione] to `CN1C(=O)[C@H]2CN(C(=O)CN3CCN(c4cccc5c4cnn5-c4ccccc4F)C3=O)C[C@H]2C1=O` [Example 108, (3aR,6aS)-5-({3-[1-(2-fluorophenyl)-1H-indazol-4-yl]-2-oxoimidazolidin-1-yl}acetyl)-2-methyltetrahydropyrrolo[3,4-c]pyrrole-1,3(2H,3aH)-dione], the IC50 rises from 3620 nM to 12300 nM (3.4-fold). The first is the more potent here.

Compared with `CN1CC2CN(C(=O)CN3CCN(c4cccc5c4cnn5-c4ccccc4F)C3=O)CC2C1` (stereo not shown) [Example 104, 1-[1-(2-fluorophenyl)-1H-indazol-4-yl]-3-[2-(5-methylhexahydropyrrolo[3,4-c]pyrrol-2(1H)-yl)-2-oxoethyl]imidazolidin-2-one], `O=C(CN1CCN(c2cccc3c2cnn3-c2ccccc2F)C1=O)N1CC2CCCC2C1` (stereo not shown) [Example 106, 1-[1-(2-fluorophenyl)-1H-indazol-4-yl]-3-[2-(hexahydrocyclopenta[c]pyrrol-2(1H)-yl)-2-oxoethyl]imidazolidin-2-one] is 9.9-fold lower in IC50: 6260 nM for the first, 635 nM for the second. The second is the more potent here.

`O=C1N(CC(=O)N2CCOC3CCCCC32)CCN1c1cccc2c1cnn2-c1ccccc1F` (stereo not shown) [Example 105, 1-[1-(2-fluorophenyl)-1H-indazol-4-yl]-3-[2-(octahydro-4H-1,4-benzoxazin-4-yl)-2-oxoethyl]imidazolidin-2-one] and `COC(=O)[C@H]1CCCN1C(=O)CN1CCN(c2cccc3c2cnn3-c2ccccc2F)C1=O` [Example 119, methyl 1-({3-[1-(2-fluorophenyl)-1H-indazol-4-yl]-2-oxoimidazolidin-1-yl}acetyl)-D-prolinate] are within 1.5-fold of each other in IC50: 1330 nM for the first, 1760 nM for the second.

Compared with `O=C1N(CC(=O)N2CC3C[C@@H]4CC2C[C@H](C3)C4)CCN1c1cccc2c1cnn2-c1ccccc1F` [Example 107, 1-{2-[(1R,3r,6s,8S)-4-azatricyclo[4.3.1.1^3,8]undec-4-yl]-2-oxoethyl}-3-[1-(2-fluorophenyl)-1H-indazol-4-yl]imidazolidin-2-one], `O=C(CN1CCN(c2cccc3c2cnn3-c2ccccc2F)C1=O)N1C[C@@H]2[C@@H]3CC[C@@H](C3)[C@@H]2C1` [Example 111, 1-[1-(2-fluorophenyl)-1H-indazol-4-yl]-3-{2-[(3aR,4R,7S,7aS)-octahydro-2H-4,7-methanoisoindol-2-yl]-2-oxoethyl}imidazolidin-2-one] is 1.5-fold lower in IC50: 1280 nM for the first, 835 nM for the second.

First: COC1C2CCC1CN(C(=O)CN1CCN(c3cccc4c3cnn4-c3ccccc3F)C1=O)C2 (stereo not shown) [Example 109, 1-[1-(2-fluorophenyl)-1H-indazol-4-yl]-3-[2-(8-methoxy-3-azabicyclo[3.2.1]oct-3-yl)-2-oxoethyl]imidazolidin-2-one]
Second: CN1CCCC2CN(C(=O)CN3CCN(c4cccc5c4cnn5-c4ccccc4F)C3=O)CC21 (stereo not shown) [Example 112, 1-[1-(2-fluorophenyl)-1H-indazol-4-yl]-3-[2-(1-methyloctahydro-6H-pyrrolo[3,4-b]pyridin-6-yl)-2-oxoethyl]imidazolidin-2-one]
The IC50 of the first is 2.6-fold lower: 1020 nM for the first, 2690 nM for the second. The first is the more potent here.

First: O=C(CN1CCN(c2cccc3c2cnn3-c2ccccc2F)C1=O)N1CCCC2(CC1)OCCO2 [Example 110, 1-[2-(1,4-dioxa-8-azaspiro[4.6]undec-8-yl)-2-oxoethyl]-3-[1-(2-fluorophenyl)-1H-indazol-4-yl]imidazolidin-2-one]
Second: CC(C)CC1CCCN1C(=O)CN1CCN(c2cccc3c2cnn3-c2ccccc2F)C1=O (stereo not shown) [Example 117, 1-[1-(2-fluorophenyl)-1H-indazol-4-yl]-3-[2-(2-isobutylpyrrolidin-1-yl)-2-oxoethyl]imidazolidin-2-one]
The IC50 of the first is 1.6-fold higher: 2810 nM for the first, 1790 nM for the second.

Going from `O=C(Nc1ccccc1)[C@H]1CCCN1C(=O)CN1CCN(c2cccc3c2cnn3-c2ccccc2F)C1=O` [Example 120, 1-({3-[1-(2-fluorophenyl)-1H-indazol-4-yl]-2-oxoimidazolidin-1-yl}acetyl)-N-phenyl-D-prolinamide] to `O=C1N(CC(=O)N2C[C@@H](O)C[C@@H]2c2cc(F)ccc2F)CCN1c1cccc2c1cnn2-c1ccccc1F` [Example 122, 1-{2-[(2R,4S)-2-(2,5-difluorophenyl)-4-hydroxypyrrolidin-1-yl]-2-oxoethyl}-3-[1-(2-fluorophenyl)-1H-indazol-4-yl]imidazolidin-2-one], the IC50 falls from 4180 nM to 2300 nM (1.8-fold).
